Source: PMC11435058, “Synthesis of New Thiazole-Privileged Chalcones as Tubulin Polymerization Inhibitors with Potential Anticancer Activities” (Pharmaceuticals, 2024)
Like-named read-outs stand apart in the source and are kept apart here.

What was measured:
MDA-MB-468 = experiment: NCI-60 anticancer screen (SRB; single dose and five doses); assay type: cell-based, human
Method in brief: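 Readout was sulforhodamine B staining, read spectrophotometrically as percent growth against untreated controls. This followed a 48 h exposure to one 10μM dose across roughly 60 human tumor lines of the NCI screen.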

[1] = test system: 60 human tumor cell lines panel; experiment: NCI-60 anticancer screen, whole panel (means and ranges over the cell lines); assay type: cell-based; conditions: for activity at 10 µM: Homo sapiens, 48 h, dose of 10 μM
HL-60(TB) = experiment: NCI-60 anticancer screen (SRB; single dose and five doses); conditions: Homo sapiens
K-562 = experiment: as above; conditions: Homo sapiens
MOLT-4 = experiment: as above; conditions: Homo sapiens
EKVX = experiment: as above; conditions: Homo sapiens
HOP-92 = experiment: as above; conditions: Homo sapiens
COLO 205 = experiment: as above; conditions: Homo sapiens
HCT-116 = experiment: as above; conditions: Homo sapiens
HT29 = experiment: as above; conditions: Homo sapiens
KM12 = experiment: as above; conditions: Homo sapiens
LOX IMVI = experiment: as above; conditions: Homo sapiens
SK-MEL-28 = experiment: as above; conditions: Homo sapiens
SK-MEL-5 = experiment: as above; conditions: Homo sapiens
UACC-257 = experiment: as above; conditions: Homo sapiens
UACC-62 = experiment: as above; conditions: Homo sapiens
OVCAR-5 = experiment: as above; conditions: Homo sapiens
NCI/ADR-RES = experiment: as above; conditions: Homo sapiens
A498 = experiment: as above; conditions: Homo sapiens
ACHN = experiment: as above; conditions: Homo sapiens
PC-3 = experiment: as above; conditions: Homo sapiens
DU-145 = experiment: as above; conditions: Homo sapiens
MCF7 = experiment: as above; conditions: Homo sapiens
T-47D = experiment: as above; conditions: Homo sapiens, T47D
CCRF-CEM = experiment: NCI-60 anticancer screen (SRB; single dose 10 μM and five doses); conditions: Homo sapiens
[2] = five doses, mean graph midpoint over all cell lines
[3] = 48 h, read-out: Growth Percentage

Cc1[nH]c(=S)sc1C(=O)/C=C/c1ccc(F)cc1 [2c, (E)-3-(4-Fluorophenyl)-1-(4-Methyl-2-Thioxo-2,3-Dihydrothiazol-5-yl)Prop-2-En-1-One]
activity at 10 µM (MDA-MB-468; Homo sapiens, 48 h, MDA-MB-468, dose of 10 μM, read-out: Growth Percentage): -4.51%
GI50 (MDA-MB-468; Homo sapiens, MDA-MB-468, Breast Cancer, five dose): 1.93 µM
CC50 (MDA-MB-468; Homo sapiens, MDA-MB-468, Breast Cancer, five dose, read-out: LC50 (the source's name)): 25.3 µM
TGI (MDA-MB-468; MDA-MB-468, Breast Cancer, five dose): 6.46 µM
activity at 10 µM ([1]; mean over the tested cell lines, read-out: Mean growth percentage): 36.7%
activity at 10 µM ([1]; range over the cell lines, read-out: growth percentages against most of the tested cells (lowest to highest)): -13.6 to 119%
Log10GI50 _MID [1, 2]: -5.23 Molar
Log10LC50 _MID [1, 2]: -4.26 Molar
Log10TGI _MID [1, 2]: -4.65 Molar
GI50 (HL-60(TB); HL-60): 2.83 µM
activity at 10 µM (HL-60(TB); HL-60, 48 h, read-out: Growth Percentage): 13%
CC50 (HL-60(TB); HL-60, read-out: LC50): > 100 µM
IC (TGI) (HL-60(TB); HL-60, read-out: TGI): 32.2 µM
GI50 (K-562; K562): 3.25 µM
activity at 10 µM (K-562; K562, 48 h, read-out: Growth Percentage): 20.4%
CC50 (K-562; K562, read-out: LC50): > 100 µM
IC (TGI) (K-562; K562, read-out: TGI): 48.8 µM
GI50 (MOLT-4; MOLT-4): 16.7 µM
activity at 10 µM (MOLT-4; MOLT-4, 48 h, read-out: Growth Percentage): 58.7%
CC50 (MOLT-4; MOLT-4, read-out: LC50): > 100 µM
IC (TGI) (MOLT-4; MOLT-4, read-out: TGI): 64.3 µM
GI50 (EKVX): 12.8 µM
activity at 10 µM (EKVX; [3]): 51%
CC50 (EKVX; read-out: LC50): 64.6 µM
IC (TGI) (EKVX; read-out: TGI): 28.7 µM
GI50 (HOP-92; HOP-92): 3.35 µM
activity at 10 µM (HOP-92; HOP-92, 48 h, read-out: Growth Percentage): 45.4%
CC50 (HOP-92; HOP-92, read-out: LC50): 56 µM
IC (TGI) (HOP-92; HOP-92, read-out: TGI): 15.8 µM
GI50 (COLO 205; COLO 205): 15.4 µM
CC50 (COLO 205; COLO 205, read-out: LC50): 80.4 µM
IC (TGI) (COLO 205; COLO 205, read-out: TGI): 35.2 µM
GI50 (HCT-116; HCT-116): 3.99 µM
activity at 10 µM (HCT-116; HCT-116, 48 h, read-out: Growth Percentage): 23.7%
CC50 (HCT-116; HCT-116, read-out: LC50): 42.5 µM
IC (TGI) (HCT-116; HCT-116, read-out: TGI): 15.2 µM
GI50 (HT29; HT-29): 10.6 µM
activity at 10 µM (HT29; HT-29, 48 h, read-out: Growth Percentage): 73.3%
CC50 (HT29; HT-29, read-out: LC50): 52.4 µM
IC (TGI) (HT29; HT-29, read-out: TGI): 23.6 µM
GI50 (KM12; KM12): 4.28 µM
activity at 10 µM (KM12; KM12, 48 h, read-out: Growth Percentage): 6.85%
CC50 (KM12; KM12, read-out: LC50): 41 µM
IC (TGI) (KM12; KM12, read-out: TGI): 15.4 µM
GI50 (LOX IMVI): 3.26 µM
activity at 10 µM (LOX IMVI; [3]): 8.91%
CC50 (LOX IMVI; read-out: LC50): 36.6 µM
IC (TGI) (LOX IMVI; read-out: TGI): 12.7 µM
GI50 (SK-MEL-28; SK-MEL-28): 11.8 µM
activity at 10 µM (SK-MEL-28; SK-MEL-28, 48 h, read-out: Growth Percentage): 50.6%
CC50 (SK-MEL-28; SK-MEL-28, read-out: LC50): 51.4 µM
IC (TGI) (SK-MEL-28; SK-MEL-28, read-out: TGI): 24.7 µM
GI50 (SK-MEL-5; SK-MEL-5): 6.77 µM
activity at 10 µM (SK-MEL-5; SK-MEL-5, 48 h, read-out: Growth Percentage): 42.6%
CC50 (SK-MEL-5; SK-MEL-5, read-out: LC50): 44.2 µM
IC (TGI) (SK-MEL-5; SK-MEL-5, read-out: TGI): 19.5 µM
GI50 (UACC-257; UACC-257): 12.6 µM
activity at 10 µM (UACC-257; UACC-257, 48 h, read-out: Growth Percentage): 64.1%
CC50 (UACC-257; UACC-257, read-out: LC50): 56.6 µM
IC (TGI) (UACC-257; UACC-257, read-out: TGI): 26.7 µM
GI50 (UACC-62; UACC-62): 5.3 µM
activity at 10 µM (UACC-62; UACC-62, 48 h, read-out: Growth Percentage): 47.3%
IC (TGI) (UACC-62; UACC-62, read-out: TGI): 19.3 µM
GI50 (OVCAR-5; OVCAR-5): 15.6 µM
activity at 10 µM (OVCAR-5; OVCAR-5, 48 h, read-out: Growth Percentage): 119%
CC50 (OVCAR-5; OVCAR-5, read-out: LC50): 57.7 µM
IC (TGI) (OVCAR-5; OVCAR-5, read-out: TGI): 30 µM
GI50 (NCI/ADR-RES): 5.92 µM
activity at 10 µM (NCI/ADR-RES; [3]): -10.8%
CC50 (NCI/ADR-RES; read-out: LC50): 85 µM
IC (TGI) (NCI/ADR-RES; read-out: TGI): 24.9 µM
GI50 (A498; A498): 13.6 µM
activity at 10 µM (A498; A498, 48 h, read-out: Growth Percentage, A498, dose of 10 μM): 115%
CC50 (A498; A498, read-out: LC50): 52.6 µM
IC (TGI) (A498; A498, read-out: TGI): 26.8 µM
GI50 (ACHN): 7.02 µM
activity at 10 µM (ACHN; [3]): 47.2%
CC50 (ACHN; read-out: LC50): 44.3 µM
IC (TGI) (ACHN; read-out: TGI): 19.6 µM
GI50 (PC-3; PC-3): 5.82 µM
activity at 10 µM (PC-3; PC-3, 48 h, read-out: Growth Percentage): 43.4%
CC50 (PC-3; PC-3, read-out: LC50): > 100 µM
IC (TGI) (PC-3; PC-3, read-out: TGI): 29.7 µM
GI50 (DU-145; DU-145): 4.32 µM
activity at 10 µM (DU-145; DU-145, 48 h, read-out: Growth Percentage): 20.3%
CC50 (DU-145; DU-145, read-out: LC50): 39.9 µM
IC (TGI) (DU-145; DU-145, read-out: TGI): 15.7 µM
GI50 (MCF7; MCF7): 2.65 µM
activity at 10 µM (MCF7; MCF7, 48 h, read-out: Growth Percentage): 9.48%
CC50 (MCF7; MCF7, read-out: LC50): 37 µM
IC (TGI) (MCF7; MCF7, read-out: TGI): 11.4 µM
GI50 (T-47D): 3.94 µM
CC50 (T-47D; read-out: LC50): > 100 µM
IC (TGI) (T-47D; read-out: TGI): 28.8 µM
GI50 (CCRF-CEM): 3.68 µM
activity at 10 µM (CCRF-CEM; [3]): -0.21%
IC (TGI) (CCRF-CEM; read-out: TGI): > 100 µM
